{"source": "patent US8598154B2", "about": "(Corcept Therapeutics, Inc., priority 2010, dated 2013)", "key": {"[1]": {"target": "T1, Human Recombinant Glucocorticoid Receptor (Homo sapiens, UniProt P04150)", "T1 construct": "This GR was a full-length steroid hormone receptor likely to be associated with heat-shock and other endogenous proteins; host or cells: baculovirus-infected insect cells", "T1 sequence (P04150 1-777)": "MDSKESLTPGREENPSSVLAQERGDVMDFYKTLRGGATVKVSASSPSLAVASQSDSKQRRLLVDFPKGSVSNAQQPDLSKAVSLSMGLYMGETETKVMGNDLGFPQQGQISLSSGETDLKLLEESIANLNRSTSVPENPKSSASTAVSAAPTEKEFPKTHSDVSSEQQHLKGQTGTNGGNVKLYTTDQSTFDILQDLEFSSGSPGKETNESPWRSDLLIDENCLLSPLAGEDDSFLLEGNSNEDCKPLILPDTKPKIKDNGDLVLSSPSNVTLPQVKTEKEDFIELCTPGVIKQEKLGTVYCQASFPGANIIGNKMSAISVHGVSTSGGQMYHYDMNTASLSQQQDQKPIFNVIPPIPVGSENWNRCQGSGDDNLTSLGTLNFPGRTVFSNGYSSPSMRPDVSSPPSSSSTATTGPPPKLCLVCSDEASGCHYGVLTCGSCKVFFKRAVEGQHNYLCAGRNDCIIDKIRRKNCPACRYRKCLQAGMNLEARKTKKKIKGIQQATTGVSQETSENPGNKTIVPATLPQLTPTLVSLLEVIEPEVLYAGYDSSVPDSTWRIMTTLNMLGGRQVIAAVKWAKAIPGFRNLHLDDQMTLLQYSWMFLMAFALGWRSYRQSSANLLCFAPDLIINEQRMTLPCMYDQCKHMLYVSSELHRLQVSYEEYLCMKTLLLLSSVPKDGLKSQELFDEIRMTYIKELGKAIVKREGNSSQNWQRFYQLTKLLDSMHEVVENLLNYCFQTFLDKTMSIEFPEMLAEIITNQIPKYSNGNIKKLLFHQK", "assay": "Glucocorticoid receptor binding displacement assay with 3H-dexamethasone", "conditions": "displacement of 2.5 nM 3H-dexamethasone; Ki from IC50 by Cheng-Prusoff; read-out: GR Binding Ki", "protocol": "The source of the receptor was recombinant baculovirus-infected insect cells. This GR was a full-length steroid hormone receptor likely to be associated with heat-shock and other endogenous proteins.\nFor the Primary Screen, test compounds were tested at 1 μM in duplicate. These compounds were diluted from 10 mM stock in 100% DMSO. After dilution to 100 μM, 5 μl were added to 245 μl assay buffer to obtained 2 μM compound and 2% DMSO.\nFor the IC50 determinations, test compounds were tested at 6 concentrations in duplicate (concentration range depends on % inhibition binding that was obtained in the Primary Screen). Test compounds were diluted from 10 mM stock in 100% DMSO. The tested solutions were prepared at 2× final assay concentration in 2% DMSO/assay buffer.\nAll reagents and the assay plate were kept on ice during the addition of reagents. […] After the additions, the incubation mixture was mixed and incubated for 2.5 hrs at 4° C.\nAfter 2.5 hrs incubation, unbound counts were removed with dextran coated charcoal (DCC) as follows: 25 μl of DCC solution (10% DCC in assay buffer) was added to all wells and mixed (total volume 225 μl). The plate was centrifuged at 4000 rpm for 10 minutes at 4° C. 75 μl of the supernatants (i.e.⅓ of total volume) was carefully pipetted into an optiplate. 200 μl of scintillation cocktail were added (Microscint-40, Packard Bioscience. B.V.). The plate was vigorously shaken for approx. 10 minutes and counted on Topcount.\nThe IC50 values were converted to Ki (the inhibition constant) using the Cheng-Prusoff equation. Test results are presented in Tablel.\nReagents: Assay buffer: 10 mM potassium phosphate buffer pH 7.6 containing 5 mM DTT, 10 mM sodium molybdate, 100 μM EDTA and 0.1% BSA."}, "[2]": {"target": "T2, glucocorticoid receptors (GR) in SW1353/MMTV-5 cells (Homo sapiens, UniProt P04150)", "T2 construct": "contains endogenous glucocorticoid receptors; endogenous in cells; host or cells: SW1353/MMTV-5 (human chondrosarcoma, stably transfected with the pMAMneo-Luc reporter only)", "T2 sequence (P04150 1-777)": "T1 sequence (P04150 1-777)", "assay": "GR functional assay using SW1353/MMTV-5 cells (MMTV-luciferase reporter)", "type": "cell-based", "protocol": "SW1353/MMTV-5 is an adherent human chondrosarcoma cell line that contains endogenous glucocorticoid receptors. It was transfected with a plasmid (pMAMneo-Luc) encoding firefly luciferase located behind a glucocorticoid-responsive element (GRE) derived from a viral promoter (long terminal repeat of mouse mammary tumor virus). A stable cell line SW1353/MMTV-5 was selected with geneticin, which was required to maintain this plasmid.\nSW1353/MMTV-5 cells were distributed in 96-well plates and incubated in medium (without geneticin) for 24 hrs (in the absence of CO2)."}}, "data": [{"smiles": "COC[C@]12Cc3cnn(-c4ccc(F)cc4)c3C=C1CCN(S(=O)(=O)c1ccc(N3CCNCC3)nc1)C2", "note": "[Example 18, (R)-1-(4-Fluorophenyl)-4a-methoxymethyl-6-[[6-(1-piperazinyl)-3-pyridinyl]sulfonyl]-1,4,7,8-tetrahydro-1,2,6-triazacyclopenta[b]naphthalene]", "values": [{"measurement": "Ki", "setting": "[1]", "result": "> 1", "unit": "nM"}, {"measurement": "Ki", "setting": "[2]", "result": "> 50", "unit": "nM"}]}, {"smiles": "COC[C@]12Cc3cnn(-c4ccc(F)cc4)c3C=C1CCN(S(=O)(=O)c1ccc(N3CCN(C)CC3)nc1)C2", "note": "[Example 19, (R)-1-(4-Fluorophenyl)-4a-methoxymethyl-6-[[6-(1-(4-methylpiperazinyl))-3-pyridinyl]sulfonyl]-1,4,7,8-tetrahydro-1,2,6-triazacyclopenta[b]naphthalene]", "values": [{"measurement": "Ki", "setting": "[1]", "result": "> 1", "unit": "nM"}, {"measurement": "Ki", "setting": "[2]", "result": "> 50", "unit": "nM"}]}, {"smiles": "COC[C@]12Cc3cnn(-c4ccc(F)cc4)c3C=C1CCN(S(=O)(=O)c1ccc(N3CC[C@@H](F)C3)nc1)C2", "note": "[Example 20, (R)-1-(4-Fluorophenyl)-6-[6-((R)-3-fluoropyrrolidin-1-yl)-pyridine-3-sulfonyl]-4a-methoxymethyl-4,4a,5,6,7,8-hexahydro-1H-1,2,6-triaza-cyclopenta[b]naphthalene]", "values": [{"measurement": "Ki", "setting": "[1]", "result": "> 1", "unit": "nM"}, {"measurement": "Ki", "setting": "[2]", "result": "10 to 50", "unit": "nM"}]}, {"smiles": "COC[C@]12Cc3cnn(-c4ccc(F)cc4)c3C=C1CCN(S(=O)(=O)c1ccc(N3CC[C@@H](O)C3)nc1)C2", "note": "[Example 21, (R)-1-{5-[(R)-1-(4-Fluorophenyl)-4a-methoxymethyl-1,4,4a,5,6,7,8-hexahydro-1,2,6-triaza-cyclopenta[b]naphthalene-6-sulfonyl]-pyridin-2-yl}-pyrrolidin-3-ol]", "values": [{"measurement": "Ki", "setting": "[1]", "result": "> 1", "unit": "nM"}, {"measurement": "Ki", "setting": "[2]", "result": "> 50", "unit": "nM"}]}, {"smiles": "COC[C@]12Cc3cnn(-c4ccc(F)cc4)c3C=C1CCN(S(=O)(=O)c1ccc(N3CC[C@H](O)C3)nc1)C2", "note": "[Example 22, (S)-1-{5-[(R)-1-(4-Fluorophenyl)-4a-methoxymethyl-1,4,4a,5,6,7,8-hexahydro-1,2,6-triaza-cyclopenta[b]naphthalene-6-sulfonyl]-pyridin-2-yl}-pyrrolidin-3-ol]", "values": [{"measurement": "Ki", "setting": "[1]", "result": "> 1", "unit": "nM"}, {"measurement": "Ki", "setting": "[2]", "result": "> 50", "unit": "nM"}]}, {"smiles": "COC[C@]12Cc3cnn(-c4ccc(F)cc4)c3C=C1CCN(S(=O)(=O)c1ccc(N3C[C@@H]4C[C@H]3CO4)nc1)C2", "note": "[Example 23, (R)-1-(4-Fluorophenyl)-4a-methoxymethyl-6-[(1S,4S)-6-(2-oxa-5-aza-bicyclo[2.2.1]hept-5-yl)pyridine-3-sulfonyl]-4,4a,5,6,7,8-hexahydro-1H-1,2,6-triaza-cyclopenta[b]naphthalene]", "values": [{"measurement": "Ki", "setting": "[1]", "result": "> 1", "unit": "nM"}, {"measurement": "Ki", "setting": "[2]", "result": "> 50", "unit": "nM"}]}, {"smiles": "COC[C@]12Cc3cnn(-c4ccc(F)cc4)c3C=C1CCN(S(=O)(=O)c1ccc(C(F)(F)F)nc1)C2", "note": "[Example 24, (R)-1-(4-Fluorophenyl)-4a-methoxymethyl-6-(6-trifluoromethylpyridine-3-sulfonyl)-4,4a,5,6,7,8-hexahydro-1H-1,2,6-triaza-cyclopenta[b]naphthalene]", "values": [{"measurement": "Ki", "setting": "[1]", "result": "> 1", "unit": "nM"}, {"measurement": "Ki", "setting": "[2]", "result": "10 to 50", "unit": "nM"}]}, {"smiles": "O=S(=O)(c1ccc(N2CCCC2)nc1)N1CCC2=Cc3c(cnn3-c3ccc(F)cc3)C[C@]2(COCC2CC2)C1", "note": "[Example 25, (R)-4a-Cyclopropylmethoxymethyl-1-(4-fluorophenyl)-6-(6-pyrrolidin-1-yl-pyridine-3-sulfonyl)-4,4a,5,6,7,8-hexahydro-1H-1,2,6-triaza-cyclopenta[b]naphthalene]", "values": [{"measurement": "Ki", "setting": "[1]", "result": "0.5 to 1", "unit": "nM"}, {"measurement": "Ki", "setting": "[2]", "result": "< 10", "unit": "nM"}]}, {"smiles": "O=S(=O)(c1ccc(N2CC[C@@H](F)C2)nc1)N1CCC2=Cc3c(cnn3-c3ccc(F)cc3)C[C@]2(COCC2CC2)C1", "note": "[Example 26, (R)-4a-Cyclopropylmethoxymethyl-1-(4-fluorophenyl)-6-(6-((R)-3-fluoro-pyrrolidin-1-yl)-pyridine-3-sulfonyl)-4,4a,5,6,7,8-hexahydro-1H-1,2,6-triaza-cyclopenta[b]naphthalene]", "values": [{"measurement": "Ki", "setting": "[1]", "result": "0.5 to 1", "unit": "nM"}, {"measurement": "Ki", "setting": "[2]", "result": "< 10", "unit": "nM"}]}, {"smiles": "O=S(=O)(c1ccc(N2CC[C@H](F)C2)nc1)N1CCC2=Cc3c(cnn3-c3ccc(F)cc3)C[C@]2(COCC2CC2)C1", "note": "[Example 27, (R)-4a-Cyclopropylmethoxymethyl-1-(4-fluorophenyl)-6-(6-((S)-3-fluoropyrrolidin-1-yl)-pyridine-3-sulfonyl)-4,4a,5,6,7,8-hexahydro-1H-1,2,6-triaza-cyclopenta[b]naphthalene]", "values": [{"measurement": "Ki", "setting": "[1]", "result": "0.5 to 1", "unit": "nM"}, {"measurement": "Ki", "setting": "[2]", "result": "< 10", "unit": "nM"}]}, {"smiles": "O=S(=O)(c1ccc(N2CC[C@@H](O)C2)nc1)N1CCC2=Cc3c(cnn3-c3ccc(F)cc3)C[C@]2(COCC2CC2)C1", "note": "[Example 28, (R)-1-{5-[(R)-4a-Cyclopropylmethoxymethyl-1-(4-fluorophenyl)-1,4,4a,5,6,7,8-hexahydro-1,2,6-triaza-cyclopenta[b]naphthalene-6-sulfonyl]pyridine-2-yl}-pyrrolidine-3-ol]", "values": [{"measurement": "Ki", "setting": "[1]", "result": "< 0.5", "unit": "nM"}, {"measurement": "Ki", "setting": "[2]", "result": "10 to 50", "unit": "nM"}]}, {"smiles": "O=S(=O)(c1ccc(N2CC[C@H](O)C2)nc1)N1CCC2=Cc3c(cnn3-c3ccc(F)cc3)C[C@]2(COCC2CC2)C1", "note": "[Example 29, (S)-1-{5-[(R)-4a-Cyclopropylmethoxymethyl-1-(4-fluorophenyl)-1,4,4a,5,6,7,8-hexahydro-1,2,6-triaza-cyclopenta[b]naphthalene-6-sulfonyl]pyridine-2-yl}-pyrrolidine-3-ol]", "values": [{"measurement": "Ki", "setting": "[1]", "result": "0.5 to 1", "unit": "nM"}, {"measurement": "Ki", "setting": "[2]", "result": "10 to 50", "unit": "nM"}]}, {"smiles": "O=S(=O)(c1ccc(N2CC(F)C2)nc1)N1CCC2=Cc3c(cnn3-c3ccc(F)cc3)C[C@]2(COCC2CC2)C1", "note": "[Example 30, (R)-4a-Cyclopropylmethoxymethyl-6-[6-(3-fluoroazetin-1-yl)-pyridine-3-sulfonyl]-1-(4-fluorophenyl)-1,4,4a,5,6,7,8-hexahydro-1H-1,2,6-triaza-cyclopenta[b]naphthalene]", "values": [{"measurement": "Ki", "setting": "[1]", "result": "< 0.5", "unit": "nM"}, {"measurement": "Ki", "setting": "[2]", "result": "< 10", "unit": "nM"}]}, {"smiles": "O=S(=O)(c1ccc(N2CC(O)C2)nc1)N1CCC2=Cc3c(cnn3-c3ccc(F)cc3)C[C@]2(COCC2CC2)C1", "note": "[Example 31, 1-{5-[(R)-4a-Cyclopropylmethoxymethyl-1-(4-fluorophenyl)-1,4,4a,5,6,7,8-hexahydro-1,2,6-triaza-cyclopenta[b]naphthalene-6-sulfonyl]-pyridin-2-yl}-azetidin-3-ol]", "values": [{"measurement": "Ki", "setting": "[1]", "result": "0.5 to 1", "unit": "nM"}, {"measurement": "Ki", "setting": "[2]", "result": "10 to 50", "unit": "nM"}]}, {"smiles": "O=S(=O)(c1ccc(N2CCOCC2)nc1)N1CCC2=Cc3c(cnn3-c3ccc(F)cc3)C[C@]2(COCC2CC2)C1", "note": "[Example 32, (R)-4a-Cyclopropylmethoxymethyl-1-(4-fluorophenyl)-6-(6-morpholin-4-yl-pyridine-3-sulfonyl)-4,4a,5,6,7,8-hexahydro-1H-1,2,6-triaza-cyclopenta[b]naphthalene]", "values": [{"measurement": "Ki", "setting": "[1]", "result": "0.5 to 1", "unit": "nM"}, {"measurement": "Ki", "setting": "[2]", "result": "< 10", "unit": "nM"}]}, {"smiles": "COCCOC[C@]12Cc3cnn(-c4ccc(F)cc4)c3C=C1CCN(S(=O)(=O)c1ccc(N3CC[C@@H](F)C3)nc1)C2", "note": "[Example 33, (R)-1-(4-Fluorophenyl)-6-[6-((R)-3-fluoropyrrolidin-1-yl)-pyridine-3-sulfonyl]-4a-(2-methoxyethoxymethyl)-4,4a,5,6,7,8-hexahydro-1H-1,2,6-triaza-cyclopenta[b]naphthalene]", "values": [{"measurement": "Ki", "setting": "[1]", "result": "0.5 to 1", "unit": "nM"}, {"measurement": "Ki", "setting": "[2]", "result": "< 10", "unit": "nM"}]}, {"smiles": "O=S(=O)(c1ccc(N2CC[C@@H](F)C2)nc1)N1CCC2=Cc3c(cnn3-c3ccc(F)cc3)C[C@]2(COCCO)C1", "note": "[Example 34, 2-{(R)-1-(4-Fluorophenyl)-6-[6-((R)-3-fluoropyrrolidin-1-yl)-pyridine-3-sulphonyl]-1,4,5,6,7,8-hexahydro-1,2,6-triaza-cyclopenta[b]naphthalene-4a-ylmethoxy}-ethanol]", "values": [{"measurement": "Ki", "setting": "[1]", "result": "> 1", "unit": "nM"}, {"measurement": "Ki", "setting": "[2]", "result": "> 50", "unit": "nM"}]}]}
